For one data set, the target named is T1, Urotensin-2 receptor (Homo sapiens, UniProt Q9UKP6).
T1 sequence (Q9UKP6 whole entry): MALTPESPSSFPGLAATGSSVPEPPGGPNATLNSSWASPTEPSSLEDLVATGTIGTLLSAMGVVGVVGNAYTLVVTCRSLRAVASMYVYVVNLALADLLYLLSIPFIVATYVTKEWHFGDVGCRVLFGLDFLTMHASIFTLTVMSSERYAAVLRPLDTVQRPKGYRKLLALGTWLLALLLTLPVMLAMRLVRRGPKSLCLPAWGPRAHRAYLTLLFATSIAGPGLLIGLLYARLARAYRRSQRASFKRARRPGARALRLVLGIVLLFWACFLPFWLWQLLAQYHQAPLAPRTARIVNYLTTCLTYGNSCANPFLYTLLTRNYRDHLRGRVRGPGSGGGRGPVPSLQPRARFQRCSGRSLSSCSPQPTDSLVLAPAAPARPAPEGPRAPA
The data set can be described thus: Binding affinity to human urotensin-2 receptor.

Data set [1] addresses Kappa-type opioid receptor (Homo sapiens, UniProt P41145). The data set can be described thus: Agonist activity at kappa opioid receptor. The data set is classed as functional.
A short description of data set [2]: (§1) Binding affinity to batrachotoxinin-sensitive rat brain sodium channel.
Another data set addresses Cytochrome P450 2D6 (Homo sapiens, UniProt P10635). The experiment in a line: Inhibition of CYP2D6. The format is ADME.
Another data set concerns the target Cytochrome P450 3A4 (Homo sapiens, UniProt P08684). The experiment in a line: Inhibition of CYP3A4. The data set is classed as ADME.
The nature of data set [3]: Volume of distribution at steady state in rat at 2 mg/kg, iv and 4 mg/kg, po. The format is ADME, organism-based. The following applies: in vivo, read-out: Vdss.
A short description of data set [4]: Oral bioavailability in rat at 4 mg/kg. The data set is classed as ADME, organism-based. Particulars: in vivo.
A short description of data set [5]: Cmax in rat at 2 mg/kg, iv and 4 mg/kg, po. The following applies: in vivo. The data set is classed as ADME, organism-based.
The nature of data set [6]: Half life in rat at 2 mg/kg, iv and 4 mg/kg, po. Particulars: in vivo. The data set is classed as ADME, organism-based.
Data set [7] in a line: Clearance in rat at 2 mg/kg, iv and 4 mg/kg, po. The following applies: in vivo. The format is ADME, organism-based.
The subject of another data set is Aorta. The data set can be described thus: Inhibition of contraction in isolated rat aorta. The format is functional.
The species named for a further data set is Rattus norvegicus. Described as §1.

Calls of active or inactive are those of the source. The calls are words filed in the database; no cut-off is given here.

Cytochrome P450 3A4, sequence (P08684 whole entry): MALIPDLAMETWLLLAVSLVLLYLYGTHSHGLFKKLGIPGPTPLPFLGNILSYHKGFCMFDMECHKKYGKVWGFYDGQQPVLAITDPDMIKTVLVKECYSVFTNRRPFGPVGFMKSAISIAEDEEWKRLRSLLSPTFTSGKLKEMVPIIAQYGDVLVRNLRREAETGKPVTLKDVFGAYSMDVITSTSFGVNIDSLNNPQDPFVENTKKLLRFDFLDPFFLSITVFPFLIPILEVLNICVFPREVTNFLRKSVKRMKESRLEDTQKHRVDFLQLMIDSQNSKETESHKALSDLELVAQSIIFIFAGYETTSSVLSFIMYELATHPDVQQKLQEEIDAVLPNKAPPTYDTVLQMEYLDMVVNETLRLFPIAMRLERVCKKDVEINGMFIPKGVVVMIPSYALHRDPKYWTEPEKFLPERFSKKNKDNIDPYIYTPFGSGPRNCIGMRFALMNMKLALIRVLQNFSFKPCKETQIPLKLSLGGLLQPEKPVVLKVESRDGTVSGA
Cytochrome P450 2D6, sequence (P10635 whole entry): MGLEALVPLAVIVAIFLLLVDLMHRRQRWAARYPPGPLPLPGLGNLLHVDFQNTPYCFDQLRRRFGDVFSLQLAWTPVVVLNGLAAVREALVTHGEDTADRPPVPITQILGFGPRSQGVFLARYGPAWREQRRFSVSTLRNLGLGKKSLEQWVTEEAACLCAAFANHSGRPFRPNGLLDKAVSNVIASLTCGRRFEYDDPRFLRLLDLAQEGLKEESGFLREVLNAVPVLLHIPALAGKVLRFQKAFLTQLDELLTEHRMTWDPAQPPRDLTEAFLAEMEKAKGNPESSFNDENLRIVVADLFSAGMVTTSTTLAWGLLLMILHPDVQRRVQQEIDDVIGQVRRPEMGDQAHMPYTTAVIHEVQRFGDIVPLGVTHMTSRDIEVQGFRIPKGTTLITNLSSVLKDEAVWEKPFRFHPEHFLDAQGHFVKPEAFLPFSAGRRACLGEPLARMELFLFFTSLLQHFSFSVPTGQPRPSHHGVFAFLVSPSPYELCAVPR
Kappa-type opioid receptor, sequence (P41145 whole entry): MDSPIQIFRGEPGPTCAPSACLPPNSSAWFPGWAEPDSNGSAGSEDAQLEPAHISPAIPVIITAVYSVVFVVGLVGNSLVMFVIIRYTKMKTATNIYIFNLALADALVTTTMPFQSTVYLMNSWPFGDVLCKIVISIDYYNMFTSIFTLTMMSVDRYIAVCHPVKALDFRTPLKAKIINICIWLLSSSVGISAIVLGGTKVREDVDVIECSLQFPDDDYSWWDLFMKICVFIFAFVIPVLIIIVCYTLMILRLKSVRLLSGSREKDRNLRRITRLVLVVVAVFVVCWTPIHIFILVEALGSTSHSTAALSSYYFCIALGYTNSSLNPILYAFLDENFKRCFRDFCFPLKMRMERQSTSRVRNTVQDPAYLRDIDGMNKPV

As a reminder, the Ki is the equilibrium dissociation constant of an inhibitor or competing ligand from its target. Read a high Ki as weaker binding. For orientation: EC50 means the midpoint of the concentration-response curve. The term IC50 denotes the concentration needed to halve the response being measured. Read a high IC50 as a need for much substance. As to `COCCN(CC(=O)N(C)C(CN1CCCC1)c1ccc(-c2ccc(C(N)=O)cc2)cc1)c1ccc(Cl)c(Cl)c1` (centres undefined), the figures for the Ki (at Urotensin-2 receptor; in [2]) were 0.003 µM and 17 µM, respectively. This compound also returned an EC50 in data set [1] of 0.1 µM. The IC50 at Cytochrome P450 2D6 was 6.2 µM; at Cytochrome P450 3A4, 2.6 µM.
`CN(CC(=O)N(C)[C@H](CN1CCCC1)c1ccccc1)c1ccc(Cl)c(Cl)c1` showed a Ki at Urotensin-2 receptor of 2.5 µM. The compound further showed a 50% effective concentration (EC50) in [1] of 0.0001 µM.
By bioavailability is commonly meant the share of a dose that reaches the circulation, judged against a reference dose that is usually intravenous. In general, Cmax refers to the maximum level reached in the sampled fluid or tissue. The term half-life denotes how long it takes for the measured level to halve. A high value points to slow loss. Turning to `CN(C(=O)CN1C(=O)COc2cc(Cl)c(Cl)cc21)[C@@H](CN1CCOCC1)c1ccc(-c2ccccc2)cc1`, in [3], the Vd was 11 L/kg. Further, the bioavailability in [4] was found to be 43%. The results for the Ki (on Urotensin-2 receptor; in [2]) were 0.016 µM and 7.7 µM, respectively. For the same compound, in data set [1], the half-maximal effective concentration (EC50) was 0.8 µM. Also, the half-maximal inhibitory concentration (IC50) against Cytochrome P450 2D6 was determined as 33 µM; on Cytochrome P450 3A4, 9.1 µM. For the same compound, the concentration in data set [5] peaked (Cmax) at 0.2 µg/mL. The half-life in data set [6] was 2.2 h. This compound returned a clearance in data set [7] of 7.2 L/h/kg.
Turning to `CN(CC(=O)N(C)C(CN1CCOCC1)c1ccc(-c2ccccc2)cc1)c1ccc(Cl)c(Cl)c1` (centres undefined), the inhibition constant Ki at Urotensin-2 receptor is 0.63 µM; in data set [2] it was greater than 300 µM. In data set [1], this compound displayed a 50% effective concentration (EC50) of 1.6 µM. The IC50 against Cytochrome P450 2D6 turned out to be 16 µM; on Cytochrome P450 3A4, 2.1 µM.
Turning to `CN(CC(=O)N1CCCC(c2ccccc2)C1CN1CCCC1)c1ccc(Cl)c(Cl)c1` (racemic), the Ki in [2] amounted to 2.5 µM.
Compound `CN(CC(=O)N1CCC[C@H](c2ccccc2)[C@@H]1CN1CCCC1)c1ccc(Cl)c(Cl)c1` displayed a Ki at Urotensin-2 receptor of 0.006 µM. The same compound returned an EC50 in data set [1] of 6.3 µM.
As for `COc1cccc(-c2ccc(C(CN3CCOCC3)N(C)C(=O)CN3C(=O)COc4cc(Cl)c(Cl)cc43)cc2)c1` (centres undefined), in data set [3], the Vd came out at 20 L/kg. The compound further gave a bioavailability in [4] of 30%. The compound further returned a Kb in the data set with Aorta of 0.021 µM. The inhibitory constant (Ki) at Urotensin-2 receptor was found to be 0.005 µM; in [2], 22 µM. The compound also gave a concentration for a half-maximal effect (EC50) in data set [1] of 0.16 µM. For the same compound, the values for the IC50 against Cytochrome P450 2D6 and against Cytochrome P450 3A4 were 17 µM and 1 µM, respectively. Further, the Cmax in data set [5] was 0.29 µg/mL. The same compound gave a half-life in data set [6] of 3.4 h. Also, in data set [7], the clearance came to 8.4 L/h/kg.
Regarding `CC(=O)Nc1ccc(-c2ccc(C(CN3CCOCC3)N(C)C(=O)CN3C(=O)COc4cc(C)c(C)cc43)cc2)cc1` (centres undefined), the Vd in [3] stood at 2.8 L/kg. Moreover, in [4], the bioavailability came out at 83%. Also, the figures for the Ki (on Urotensin-2 receptor; in data set [2]) were 0.003 µM and 30 µM, respectively. In addition, it took 0.8 µM to reach a half-maximal effect in data set [1] (EC50). Further, the IC50 against Cytochrome P450 2D6 is 30 µM; on Cytochrome P450 3A4 it was 6.4 µM. The compound also returned a maximum concentration (Cmax) in [5] of 0.6 µg/mL. This compound also had a half-life in data set [6] of 1.7 h. The compound also yielded a clearance in data set [7] of 5.64 L/h/kg.
For `CN(CC(=O)N(C)C(CN1CCCC1)c1ccc(-c2ccccc2)cc1)c1ccc(Cl)c(Cl)c1` (centres undefined), the inhibition constant Ki was found to be 0.02 µM at Urotensin-2 receptor and 1.2 µM in data set [2]. A half-maximal effect in data set [1] (EC50) was put at 0.016 µM. Moreover, the half-maximal inhibitory concentration (IC50) at Cytochrome P450 2D6 was determined as 5.9 µM; against Cytochrome P450 3A4, 4.9 µM.
On to `CN(CC(=O)N(C)C(CN1CCCC1)c1ccccc1)c1ccc(Cl)c(Cl)c1` (racemic), for which the affinity on Urotensin-2 receptor, expressed as Ki, was 0.015 µM. Moreover, in data set [1], the EC50 was 0.0002 µM. In addition, the outcome in the data set filed under Rattus norvegicus was inactive. Besides, the results for the 50% inhibitory concentration (IC50) on Cytochrome P450 2D6 and against Cytochrome P450 3A4 were 0.16 µM and 3.3 µM, respectively.
In turn, `CN(C(=O)Cc1ccc(Cl)c(Cl)c1)[C@H](CN1CCCC1)c1ccccc1` [ICI-199,441] returned a Ki at Urotensin-2 receptor of 4 µM.
As to `CN(C(=O)CN(CC#N)c1ccc(Cl)c(Cl)c1)C(CN1CCCC1)c1ccc(-c2cccc(C(N)=O)c2)cc1` (centres undefined), in [3], the Vd was found to be 20 L/kg. Further, the bioavailability in [4] was found to be 36%. Moreover, the inhibition constant Ki on Urotensin-2 receptor was determined as 0.0003 µM; in data set [2] it was 22 µM. This compound also showed a 50% effective concentration (EC50) in [1] of 0.032 µM. Besides, the half-inhibitory concentration (IC50) worked out at 3.5 µM on Cytochrome P450 2D6 and 2.2 µM against Cytochrome P450 3A4. In [5], this compound yielded a Cmax of 0.34 µg/mL. In [6], this compound gave a half-life of 3.4 h. Moreover, the clearance in data set [7] came out at 6 L/h/kg.
Consider `CN(CC(=O)N(C)[C@@H](CN1CCCC1)c1ccccc1)c1ccc(Cl)c(Cl)c1`, for which the Ki was found to be 0.013 µM at Urotensin-2 receptor and 2 µM in data set [2]. Moreover, the midpoint of the response in data set [1], the EC50, lay at 0.004 µM.
Take `CN(C(=O)CN1C(=O)COc2cc(Cl)c(Cl)cc21)[C@H](CN1CCOCC1)c1ccc(-c2ccccc2)cc1`: the Vd in [3] was found to be 19 L/kg. Further, the bioavailability in data set [4] is 17%. Moreover, the Ki on Urotensin-2 receptor amounted to 0.63 µM; in data set [2], 9.4 µM. For the same compound, in data set [1], it took 0.04 µM to reach a half-maximal effect (EC50). Also, the values for the IC50 against Cytochrome P450 2D6 and at Cytochrome P450 3A4 were 33 µM and 4.2 µM, respectively. In data set [5], the maximum concentration (Cmax) worked out at 0.23 µg/mL. In addition, the half-life in data set [6] was 2.6 h. The clearance in [7] amounted to 7.8 L/h/kg.
On to `CNC(=O)c1cccc(-c2ccc(C(CN3CCOCC3)N(C)C(=O)Cn3c(=O)cnc4cc(Cl)c(Cl)cc43)cc2)c1` (centres undefined), for which the Vd in [3] was determined as 2 L/kg. Besides, the bioavailability in data set [4] stood at 29%. Moreover, the Ki on Urotensin-2 receptor was determined as 0.004 µM; in data set [2], 30 µM. Further, the midpoint of the response in data set [1], the EC50, lay at 2 µM. In addition, the figures for the IC50 against Cytochrome P450 2D6 and at Cytochrome P450 3A4 were 33 µM and 5 µM, respectively. In data set [5], this compound yielded a peak concentration (Cmax) of 1.1 µg/mL. The same compound gave a half-life in [6] of 1.5 h. The compound further registered a clearance in data set [7] of 2.16 L/h/kg.
In data set [1], `CN(CC(=O)N1CCC[C@@H](c2ccccc2)[C@H]1CN1CCCC1)c1ccc(Cl)c(Cl)c1` displayed an EC50 of 2 µM.
`CNC(=O)c1cccc(-c2ccc(C(CN3CCOCC3)N(C)C(=O)Cn3c(=O)cnc4cc(C)c(C)cc43)cc2)c1` (centres undefined): in [3], the Vd is 1.7 L/kg. Besides, in data set [4], the bioavailability is 39%. Further, the inhibition constant (Ki) is 0.006 µM at Urotensin-2 receptor and 30 µM in data set [2]. Also, in [1], the EC50 worked out at 4 µM. The IC50 at Cytochrome P450 2D6 is 33 µM; at Cytochrome P450 3A4, 9 µM. In [6], the half-life was 1 h. In [7], this compound displayed a clearance of 3.6 L/h/kg.
As for `CN(C(=O)CN1C(=O)COc2cc(Cl)c(Cl)cc21)C(CN1CCOCC1)c1ccc(-c2ccccc2)cc1` (racemic), in data set [3], the Vd is 23 L/kg. Also, the inhibitory constant (Ki) on Urotensin-2 receptor came to 0.013 µM; in [2], 11.1 µM. In data set [1], this compound returned an EC50 of 0.32 µM. The half-maximal inhibitory concentration (IC50) against Cytochrome P450 2D6 was 33 µM; on Cytochrome P450 3A4, 4.6 µM. For the same compound, in data set [5], the concentration peaked (Cmax) at 0.16 µg/mL. The half-life in [6] is 2.4 h. The clearance in [7] amounted to 9 L/h/kg.

For the origin of these results see ChEMBL document CHEMBL1157450, “Potent and selective small-molecule human urotensin-II antagonists with improved pharmacokinetic profiles” (Bioorg Med Chem Lett, 2008).
